Laboratory results published in patent US11883526B2 (priority 2019, dated 2024).
Like-named read-outs stand apart in the source and are kept apart here. Marks after values point to notes of the source that are not given here.

Legend:
[1] = test system: female Sprague-Dawley rats; test: Single dose neurotoxicity study: mortality, clinical observations, body weight; type: in vivo, rat
Procedure: The injection volume was 5 mL/kg.
Body weight and body weight gain were measured daily.

[2] = Text: This example provides an LC-MS/MS method for the determination of ketamine and norketamine in sodium heparin human plasma using ketamine-d4 and norketamine-d4 as the respective internal standards (IS).
MDD/TRD subjects = settings: quetiapine 52-week safety study; Symbyax over 76 weeks; cited from earlier work
[3] = Pharmacokinetics of intranasal esketamine in healthy subjects (Example 9); settings: for AUClast / AUC∞ / t1/2 / Cmax / Metabolite/Parent Ratio AUClast / Metabolite/Parent Ratio Cmax / Metabolite/Parent Ratio AUC∞: mean; for tmax: median; for Metabolite/Parent Ratio AUClast / Metabolite/Parent Ratio Cmax / Metabolite/Parent Ratio AUC∞: noresketamine/esketamine
Procedure: This was an open-label, single-center study. The subjects were healthy Caucasian men and women, 20 to 55 years of age, inclusive. […] The solution consisted of:
Blood samples (4 mL each) for determination of esketamine and noresketamine plasma concentrations were collected into the appropriate collection tube (e.g., Vacutainer®) at timepoints 0.00, 0.12, 0.20, 0.37, 0.53, 0.67, 0.83, 1.00, 1.25, 1.50, 2.00, 3.00, 4.00, 6.00, 9.00, 12.00, 18.00, and 24.00 h. The total amount of blood to be drawn for clinical laboratory tests and PK evaluations is approximately 327 mL.
Plasma samples were analyzed for esketamine and noresketamine concentrations using the validated, specific and sensitive liquid chromatography coupled to tandem mass spectrometry (LC-MS/MS) achiral method of Example 8.
Serial PK blood samples (4 mL each) were collected for a 24-hour period from each subject (Periods 1, 2, and 3). […] Statistical Methods 1.6.4.1. Sample Size
The following key parameters of esketamine and noresketamine in plasma were calculated using noncompartmental methods and actual sampling times: Cmax, tmax, AUClast, AUC∞, t1/2,λ, and λz.

[4] = single dose study, (+)MK-801 maleate 1 mg/kg subcutaneous
[5] = noresketamine after esketamine 28 mg
[6] = noresketamine after esketamine 56 mg
[7] = noresketamine after esketamine 56 mg, n = 13
[8] = noresketamine after esketamine 84 mg
[9] = noresketamine after esketamine 84 mg, n = 12

Which body weight loss ([1]; 1 mg/kg sc, first 48 hours after treatment) does the source give for (+)MK-801 maleate [reference compound] here?
Its body weight loss is 13-14%.

And the mortality ([1]; single sc dose 1 mg/kg, single and repeated dose studies)?
Its mortality is “No mortality”.

For `C[C@]12N[C@H](Cc3ccccc31)c1ccccc12.O=C(O)/C=C\C(=O)O` [Positive control], which “Clinical observation incidence: Ataxia” value [1, 4] is on record?
The value was 27/30 ***.

And the “Clinical observation incidence: Catalepsy” value [1, 4]?
Its value is 15/30 ***.

What about the “Clinical observation incidence: Chromodacryorrhea” value [1, 4] of the same compound?
The value was 24/30 ***.

What about the “Clinical observation incidence: Decreased general activity” value [1, 4] of the same compound?
Its value is 30/30 ***.

And the “Clinical observation incidence: Decubitus” value [1, 4]?
Its value is 30/30 ***.

What about the “Clinical observation incidence: Increased general activity” value [1, 4] of the same compound?
The value was 4/30.

And the “Clinical observation incidence: Narrowed palpebral fissure” value [1, 4]?
Its value is 4/30.

And the “Clinical observation incidence: Piloerection” value [1, 4]?
Its value is 8/30**.

And the “Clinical observation incidence: Salivation (out of normal)” value [1, 4]?
The value was 17/30 ***.

What about the “Clinical observation incidence: bradypnoea” value [1, 4] of the same compound?
Its value is 12/30 ***.

Which results are given for `NC1(c2ccccc2Cl)CCCCC1=O` (centres unmarked) [Norketamine]?
QC sample freeze/thaw stability ([2]; freeze (−20° C.)/thaw (ice-water bath)): 3 freeze (−20° C.)/thaw (ice-water bath) cycles; QC sample freeze/thaw stability ([2]; freeze (−20° C.)/thaw (room temperature)): 3 freeze (−20° C.)/thaw (room temperature) cycles; QC sample long-term storage stability ([2]; human plasma QC sample at −20° C.): 1552 days at −20 °C; QC sample bench-top stability ([2]; human plasma QC sample, room temperature): 68.5 hours at room temp; Stock solution stability (spike solutions) ([2]; ketamine/norketamine spike solutions at −20° C.): 610 days at −20 °C for ketamine/norketamine spike solutions; Processed sample stability ([2]; room temperature): 146.5 hours at room temperature; Whole Blood Stability ([2]; room temperature and ice-water bath (0-4° C.)): 120 minutes at room temperature and in an ice-water bath (0-4° C.); Stock solution stability ([2]; stock solutions at room temperature under white light): 6 h; Stock solution stability ([2]; stock solutions at −20° C.): 15100 h

For `OCCOCCN1CCN(C2=Nc3ccccc3Sc3ccccc32)CC1` [quetiapine], which “rate of discontinuation due to adverse events in long-term study in MDD/TRD subjects” value (MDD/TRD subjects) is on record?
The value was 23.7%.

Which results are given for `N[C@]1(c2ccccc2Cl)CCCCC1=O` [noresketamine]?
mean ratio of noresketamine to esketamine, AUClast ([3]; across 28, 56 and 84 mg): 3.62 to 4.32; mean ratio of noresketamine to esketamine, AUC∞ ([3]; across 28, 56 and 84 mg): 3.80 to 4.46; mean ratio of noresketamine to esketamine, Cmax ([3]; across 28, 56 and 84 mg): 1.96 to 2.55; mean t1/2 ([3]; across 28, 56 and 84 mg): 7.48 to 7.74 h; variability of AUC (AUClast and AUC∞) ([3]; across the 3 treatment groups): 17.0% to 21.3; variability of Cmax (percent coefficient of variation) ([3]; across the 3 treatment groups): 25.8% to 33.7; median tmax ([3]; healthy subjects, across 28, 56 and 84 mg intranasal regimens): 1.25 to 1.5 h; AUClast [3, 5]: 454 ng·h/mL; AUC∞ [3, 5]: 508 ng·h/mL; t1/2 [3, 5]: 7.74 h; tmax [3, 5]: 1.25 h; AUClast [3, 6]: 851 ng·h/mL; AUC∞ [3, 7]: 924^c h*ng/mL; t1/2 [3, 7]: 7.71^c h; tmax [3, 6]: 1.50 h; AUClast [3, 8]: 1287 ng·h/mL; AUC∞ [3, 9]: 1392^b h*ng/mL; t1/2 [3, 9]: 7.48^b h; tmax [3, 8]: 1.50 h; Cmax ([3]; noresketamine in plasma after intranasal esketamine 28 mg (Treatment A)): 92.8 ng/mL; Cmax ([3]; noresketamine in plasma after intranasal esketamine 56 mg (Treatment B)): 154 ng/mL; Cmax ([3]; noresketamine in plasma after intranasal esketamine 84 mg (Treatment C)): 241 ng/mL; Metabolite/Parent Ratio AUClast ([3]; esketamine 28 mg): 3.62; Metabolite/Parent Ratio Cmax ([3]; esketamine 28 mg): 1.96; Metabolite/Parent Ratio AUC∞ ([3]; esketamine 28 mg, n = 12): 3.80^b; Metabolite/Parent Ratio AUClast ([3]; esketamine 56 mg): 4.07; Metabolite/Parent Ratio Cmax ([3]; esketamine 56 mg): 2.28; Metabolite/Parent Ratio AUC∞ ([3]; esketamine 56 mg, n = 12): 4.22^b; Metabolite/Parent Ratio AUClast ([3]; esketamine 84 mg): 4.32; Metabolite/Parent Ratio Cmax ([3]; esketamine 84 mg): 2.55; Metabolite/Parent Ratio AUC∞ ([3]; esketamine 84 mg, n = 11): 4.46^d
